Data as given in patent publication US7901681B2, “Trypanosome derived apoptotic factors (TAF)” (priority 2003, dated 2011).

Assays:
[1] = tested on: HBVEC; test: TUNEL assay, dose response of apoptosis in HBVEC; assay type: cell-based, human
Description: RBVEC Cell line: Human Brain Macrovascular Endothelial Cells (HBVEC) were obtained from Biowhittaker (Walkersville, Md.). They were grown in media made as per the instructions in the Complete Medium Kit (Cell Systems Corporation, Kirkland, Wash.). Briefly, 500 ml of Complete Medium was added to 10 ml of Attachment Factor (Cell Systems Corporation, Kirkland, Wash.). The medium is a liquid medium containing 10% serum and CSC Growth factor. Cell stocks were maintained in T25 flasks at 37° C. in a 5% CO2 incubator, and were harvested and passed at about 60-80% confluence. Experiments were performed on cells plated and grown for 24 to 48 hours on collagen-coated coverslips in 35 mm tissue culture dishes.
Terminal deoxynucleotidyl transferase dUTP nick-end labeling (TUNEL) assay. […] Cells on cover slips were washed with PBS, and fixed for 30 minutes at RT with 4% paraformaldehyde, in PBS, pH 7.4. […] Total cell counts were determined by counterstaining fixed cultures with 20:g/ml of Hoechst 33258. […]
Dose Response. The effect of Trypanosome conditioned serum containing medium-induced apoptosis was determined in HBVEC. […] Total cells, and fluorescent cells were counted for each field examined (10 fields per plate minimum). The percentage of TUNEL-labeled cells was calculated as the number of FITC-stained cells divided by the total number.of cells. […]

[2] = tested on: mouse cerebellum; test: Mouse cerebellum apoptosis analysis (TUNEL of brain sections); assay type: in vivo, Balb/c mice; details: similar to that induced by T. brucei
Description: Murine African trypanosomiasis model. All animal-related procedures were carried out in strict accordance with the National Institutes of Health Guide for the Care and Use of Laboratory Animals and approved by the Morehouse School of Medicine's Animal Care and Use Committee. Male Balb/c mice (6-8 weeks of age) were maintained on a 12-hour-light/12-hour-dark cycle with access to food and water ad libitum. Mice were injected intra-peritoneally with parasitized blood (T. brucei L427) and groups of 10 were then sacrificed on days 0, 4, 6 and 8 post-infection (P.I.). Equal numbers of mice were sham-injected (with uninfected blood) as controls. All experiments were repeated twice at different times to ensure that the data were representative of each group, and took into account the potential individual-host variation in trypanosome-induced global gene expression. This murine trypanosomiasis model mimics the major clinical symptoms of HAT, with the infected mice developing fever, tremors, lethargy, weight loss, dyskinesia, convulsions, altered gait, and death by day 10 post injection (P.I.).
Mouse cerebellum and apoptosis analysis. […] The level of apoptosis visible in brain sections was determined semi-quantitatively as the mean numbers of TUNEL-positive (i.e. apoptotic) cells/cm^2 in 20 comparative fields of brain sections from infected and uninfected mice.

## AEGPEDKGLTKGGKGKGEKETKVQDEV (listed as Trypanosoma brucei) [ProEP2-1]
[1]
  induction of apoptosis in HBVEC: induce apoptosis
[1]; 24 hours
  dose dependence of TUNEL labeling of HBVEC: dose dependent
[2]
  induction of apoptosis in cerebella of mice: induce apoptosis
